Values after ≈ are worked out from the molar mass of the structure shown.
Key:
Test in all cases: MIC, agar incorporation method
MRSA 33 = details: agar incorporation
S. pneum AB 34 = details: agar incorporation
MRSA 562 = details: agar incorporation; Table 1
S. aureus ATCC 25923 = details: agar incorporation
Strep. pne. ATCC 6303 = details: agar incorporation
MRSA 15187 = details: agar incorporation
Ent. faecalis ATCC 29212 = details: agar incorporation
Strep. pyog. ATCC 19615 = details: agar incorporation
VRE 6A (Ent. faecium 6A) = details: agar incorporation

With `CC(=O)NC[C@H]1CN(c2ccc(N3CCN(Cc4ccc(Br)s4)CC3)c(F)c2)C(=O)O1` [Compound No. 27] the “MIC MRSA 33” value (MRSA 33) was 2 µg/mL (≈ 3.91 µM), the “MIC S. pneum AB 34” value (S. pneum AB 34) was 0.5 µg/mL (≈ 0.978 µM) and the “MIC MRSA 562” value (MRSA 562) was 2 µg/mL (≈ 3.91 µM). The “MIC S. aureus 25923” value (S. aureus ATCC 25923) was 2 µg/mL (≈ 3.91 µM), the “MIC S. pneum 6303” value (Strep. pne. ATCC 6303) was 2 µg/mL (≈ 3.91 µM) and the “MIC MRSA 15187” value (MRSA 15187) was 2 µg/mL (≈ 3.91 µM). For the same compound, the “MIC E. faecalis 29212” value (Ent. faecalis ATCC 29212) was 2 µg/mL (≈ 3.91 µM), the “MIC S. pyogenes 19615” value (Strep. pyog. ATCC 19615) was 1 µg/mL (≈ 1.96 µM) and the “MIC VRE 6A” value (VRE 6A (Ent. faecium 6A)) was 4 µg/mL (≈ 7.82 µM).
In the case of `CC(=O)NC[C@H]1CN(c2ccc(N3CCN(Cc4cccn4C)CC3)c(F)c2)C(=O)O1` [Compound No. 22, (S)-N[[3-[3-Fluoro-4-[N-1[4-{2-pyrrole(1-methyl)methyl}]piperazinyl]phenyl]2-oxo-5-oxazolidinyl]methyl]acetamide], the “MIC MRSA 33” value (MRSA 33) is reported as 8 µg/mL (≈ 18.6 µM), the “MIC S. pneum AB 34” value (S. pneum AB 34) is reported as 1 µg/mL (≈ 2.33 µM) and the “MIC MRSA 562” value (MRSA 562) is reported as 4 µg/mL (≈ 9.31 µM). The “MIC S. aureus 25923” value (S. aureus ATCC 25923) was 2 µg/mL (≈ 4.66 µM), the “MIC S. pneum 6303” value (Strep. pne. ATCC 6303) was 1 µg/mL (≈ 2.33 µM) and the “MIC MRSA 15187” value (MRSA 15187) was 8 µg/mL (≈ 18.6 µM). For the same compound, the “MIC E. faecalis 29212” value (Ent. faecalis ATCC 29212) was 8 µg/mL (≈ 18.6 µM), the “MIC S. pyogenes 19615” value (Strep. pyog. ATCC 19615) was 1 µg/mL (≈ 2.33 µM) and the “MIC VRE 6A” value (VRE 6A (Ent. faecium 6A)) was 8 µg/mL (≈ 18.6 µM).
With `CC(=O)NC[C@H]1CN(c2ccc(N3CCN(C(=O)c4ccc(CCl)o4)CC3)c(F)c2)C(=O)O1` [Compound No. 05, (S)-N-[[3-Fluoro-4-[N-1[4-(5-chloromethyl-2-furoyl)piperazinyl]phenyl]-2-oxo-5-oxazolidinyl]methyl]acetamide] the “MIC MRSA 33” value (MRSA 33) was 4 µg/mL (≈ 8.35 µM), the “MIC S. pneum AB 34” value (S. pneum AB 34) was 4 µg/mL (≈ 8.35 µM) and the “MIC S. aureus 25923” value (S. aureus ATCC 25923) was 16 µg/mL (≈ 33.4 µM). The “MIC S. pneum 6303” value (Strep. pne. ATCC 6303) was 4 µg/mL (≈ 8.35 µM), the “MIC MRSA 15187” value (MRSA 15187) was 4 µg/mL (≈ 8.35 µM) and the “MIC E. faecalis 29212” value (Ent. faecalis ATCC 29212) was 8 µg/mL (≈ 16.7 µM). The “MIC S. pyogenes 19615” value (Strep. pyog. ATCC 19615) was 4 µg/mL (≈ 8.35 µM) and the “MIC VRE 6A” value (VRE 6A (Ent. faecium 6A)) was 8 µg/mL (≈ 16.7 µM).
`CC(=O)NC[C@H]1CN(c2ccc(N3CCN(Cc4ccc([N+](=O)[O-])s4)CC3)c(F)c2)C(=O)O1` [Compound No. 23, (S)-N[[3-[3-Fluoro-4-[N-1[4-(2-thienyl(5-nitro)methyl}]piperazinyl]phenyl]2-oxo-5-oxazolidinyl]methyl]acetamide] was tested, and the “MIC MRSA 33” value (MRSA 33) was 8 µg/mL (≈ 16.8 µM), the “MIC S. pneum AB 34” value (S. pneum AB 34) was 8 µg/mL (≈ 16.8 µM) and the “MIC S. aureus 25923” value (S. aureus ATCC 25923) was 8 µg/mL (≈ 16.8 µM). For the same compound, the “MIC S. pneum 6303” value (Strep. pne. ATCC 6303) was 8 µg/mL (≈ 16.8 µM), the “MIC MRSA 15187” value (MRSA 15187) was 8 µg/mL (≈ 16.8 µM) and the “MIC E. faecalis 29212” value (Ent. faecalis ATCC 29212) was 8 µg/mL (≈ 16.8 µM). The “MIC S. pyogenes 19615” value (Strep. pyog. ATCC 19615) was 1 µg/mL (≈ 2.09 µM) and the “MIC VRE 6A” value (VRE 6A (Ent. faecium 6A)) was 8 µg/mL (≈ 16.8 µM).
In the case of `CC(=O)NC[C@H]1CN(c2ccc(N3C[C@@H]4[C@H](C3)[C@H]4N(C)C(=O)c3ccc(Br)o3)c(F)c2)C(=O)O1` [Compound No. 33, (S)-N-[[3-[3-Fluoro[4-[3-(1α,5α,6α)-6-[N-(5-bromo-2-furoyl)-N-methyl]amino]-3-azabicyclo-[3.1.0.]hexane]phenyl]-2-oxo-5-oxazolidinyl]methyl]acetamide], the “MIC MRSA 33” value (MRSA 33) is reported as 4 µg/mL (≈ 7.47 µM), the “MIC S. pneum AB 34” value (S. pneum AB 34) is reported as 4 µg/mL (≈ 7.47 µM) and the “MIC S. aureus 25923” value (S. aureus ATCC 25923) is reported as 4 µg/mL (≈ 7.47 µM). The “MIC S. pneum 6303” value (Strep. pne. ATCC 6303) was 8 µg/mL (≈ 14.9 µM), the “MIC MRSA 15187” value (MRSA 15187) was 4 µg/mL (≈ 7.47 µM) and the “MIC E. faecalis 29212” value (Ent. faecalis ATCC 29212) was 4 µg/mL (≈ 7.47 µM). The “MIC S. pyogenes 19615” value (Strep. pyog. ATCC 19615) was 0.5 µg/mL (≈ 0.934 µM) and the “MIC VRE 6A” value (VRE 6A (Ent. faecium 6A)) was 4 µg/mL (≈ 7.47 µM).
With `CC(=O)NC[C@H]1CN(c2ccc(N3CC4C(C3)C4N(C)C(=O)c3ccoc3)c(F)c2)C(=O)O1` (stereo partly drawn) [Compound No. 32, (S)-N-[[3-[3-Fluoro[4-[3-(1α,5α,6α)-6-[N-(3-furoyl)-N-methyl]amino]-3-azabicyclo-[3.1.0]hexane]phenyl]-2-oxo-5-oxazolidinyl]methyl]acetamide] the “MIC MRSA 33” value (MRSA 33) was 8 µg/mL (≈ 17.5 µM), the “MIC S. pneum AB 34” value (S. pneum AB 34) was 4 µg/mL (≈ 8.76 µM) and the “MIC S. aureus 25923” value (S. aureus ATCC 25923) was 8 µg/mL (≈ 17.5 µM). For the same compound, the “MIC S. pneum 6303” value (Strep. pne. ATCC 6303) was 4 µg/mL (≈ 8.76 µM), the “MIC MRSA 15187” value (MRSA 15187) was 8 µg/mL (≈ 17.5 µM) and the “MIC E. faecalis 29212” value (Ent. faecalis ATCC 29212) was 8 µg/mL (≈ 17.5 µM). For the same compound, the “MIC S. pyogenes 19615” value (Strep. pyog. ATCC 19615) was 1 µg/mL (≈ 2.19 µM) and the “MIC VRE 6A” value (VRE 6A (Ent. faecium 6A)) was 8 µg/mL (≈ 17.5 µM).
`CC(=O)NC[C@H]1CN(c2ccc(N3CCN(C(=O)c4ccco4)CC3)c(F)c2)C(=O)O1` [Compound No. 01, (S)-N-[[3-[3-Fluoro-4-[N-1-[4-(2-furoyl)piperazinyl]]phenyl]-2-oxo-5-oxazolidinyl]methyl]acetamide] was tested, and the “MIC MRSA 33” value (MRSA 33) was 4 µg/mL (≈ 9.29 µM), the “MIC S. pneum AB 34” value (S. pneum AB 34) was 1 µg/mL (≈ 2.32 µM) and the “MIC S. aureus 25923” value (S. aureus ATCC 25923) was 2 µg/mL (≈ 4.65 µM). For the same compound, the “MIC S. pneum 6303” value (Strep. pne. ATCC 6303) was 2 µg/mL (≈ 4.65 µM), the “MIC MRSA 15187” value (MRSA 15187) was 2 µg/mL (≈ 4.65 µM) and the “MIC E. faecalis 29212” value (Ent. faecalis ATCC 29212) was 2 µg/mL (≈ 4.65 µM). The “MIC S. pyogenes 19615” value (Strep. pyog. ATCC 19615) was 1 µg/mL (≈ 2.32 µM) and the “MIC VRE 6A” value (VRE 6A (Ent. faecium 6A)) was 2 µg/mL (≈ 4.65 µM).
